# Assay results reported in US5846942A, “Cholecystokinin antagonists, their preparation and therapeutic use” (Warner-Lambert Company, priority 1996, dated 1998).
# Target: T1, Central CCK Receptors (Mus musculus, UniProt P56481)
# T1 construct: from tissue; host or cells: cerebral cortex membranes of male CFLP mice (30-40 g)
# T1 sequence (P56481 1-453): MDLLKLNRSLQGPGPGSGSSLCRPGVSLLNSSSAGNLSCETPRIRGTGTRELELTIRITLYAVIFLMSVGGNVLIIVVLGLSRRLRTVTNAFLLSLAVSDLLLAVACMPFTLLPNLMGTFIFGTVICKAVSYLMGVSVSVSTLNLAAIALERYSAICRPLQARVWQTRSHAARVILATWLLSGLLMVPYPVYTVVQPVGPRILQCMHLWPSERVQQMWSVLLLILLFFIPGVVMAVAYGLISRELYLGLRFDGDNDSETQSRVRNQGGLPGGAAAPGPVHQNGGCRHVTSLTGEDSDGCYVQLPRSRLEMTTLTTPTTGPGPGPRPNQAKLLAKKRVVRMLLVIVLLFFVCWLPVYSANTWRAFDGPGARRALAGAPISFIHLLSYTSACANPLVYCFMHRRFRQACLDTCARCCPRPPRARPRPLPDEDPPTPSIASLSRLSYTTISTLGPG
# Assay: Binding to central CCK receptors, displacement of tritiated pentagastrin from cerebral cortical membranes of male CFLP mice
# Design: species or system mouse (male CFLP)
# Conditions: cerebral cortexes taken from male CFLP mice; 2 nM tritiated-pentagastrin
# Procedure: The biological activity of compounds of the present invention was evaluated employing an initial screening test which rapidly and accurately measured the binding of the tested compound to known CCK receptor sites. […] (See Hays et al, Neuropeptides 1:53-62, 1980; and Satuer et al, Science 208:1155-1156, 1980).
# In this screening test, the cerebral cortices taken from male CFLP mice weighing between 30-40 g were dissected on ice, weighed, and homogenized in 10 volumes of 50 mM Tris-HCl buffer (pH 7.4 at 0°-4° C.). The resulting suspension was centrifuged, the supernate was discarded, and the pellet was washed by resuspension in Tris-HCl buffer followed by recentrifugation. The final pellet was resuspended in 20 volumes of […] Hepes buffer (pH 7.2 at 23° C.) containing 130 mM NaCl, […] KCl, […] MgCl2, […] EDTA, 5 mg/mL bovine albumin, and bacitracin (0.25 mg/mL).
# In saturation studies, cerebral cortical membranes were incubated at 23° C. for 120 minutes in a final volume of 500 μL of Hepes incubation buffer (pH 7.2) together with […] tritiated-pentagastrin (Amersham International, England).
# In the displacement experiments, membranes were incubated with a single concentration (2 nM) of ligand, together with increasing concentrations (10^-11 to […]) of competitive test compound. In each case, the nonspecific binding was defined as that persisting in the presence of the unlabeled octapeptide CCK26-33 (10^-6 M)
# Following incubation, radioactivity bound to membranes was separated from that free in solution by rapid filtration through Whatman GF/B filters and washed three times with 4 mL of ice cold Tris-HCl buffer. Filters from samples incubated with tritiated-pentagastrin were placed in polyethylene vials with 4 mL of scintillation cocktail, and the radioactivity was estimated by liquid scintillation spectrometry (efficiency 47-52%).
# Saturation curves for specific tritiated- pentagastrin binding to mouse cortical membranes were analyzed by the methods of Scatchard (Ann. New York Acad. Sci. 51:660-672, 1949, and Hill (J. Physiol. 40:IV-VIII, 1910), to provide estimates for the maximum number of binding sites (Bmax) and the equilibrium dissociation constant (Ka).
# In displacement experiments, inhibition curves were analyzed by either logit-log plots or the iterative curve fitting computer program ALLFIT (DeLean, Munson and Redbard, 1978) to provide estimates of the IC50 and nH (apparent Hill coefficient) values).
# The inhibition constant (Ki) of the test compound was then calculated according to the Cheng-Prusoff equation: [formula] where [L] is the concentration of radiolabel and Ka is the equilibrium dissociation constant.
row,Compound,Ki
1,"CC(=O)N(C[C@@](C)(Cc1c[nH]c2ccccc12)NC(=O)OC1C2CC3CC(C2)CC1C3)[C@H](CO)Cc1ccccc1 (stereo partly drawn) [Example 8, Tricyclo[3.3.1.1^3,7]dec-2-yl[R-(R*,S*)]-[acetyl[1-(hydroxymethyl)-2-phenylethyl]amino]-2-(1H-indol-3-ylmethyl)prop-2-ylcarbamate]",318 nM
2,"C[C@](CNC(=O)Cc1ccccc1)(Cc1c[nH]c2ccccc12)NC(=O)OC1C2CC3CC(C2)CC1C3 (stereo partly drawn) [Example 22, Carbamic acid, [1-(1H-indol-3-ylmethyl)-1-methyl-2-[(2-phenylacetyl)amino]ethyl]-, tricyclo[3.3.1.1^3,7]-dec-2-yl ester. (R)-]",704 nM
3,"C[C@](Cc1c[nH]c2ccccc12)(NC(=O)OC1C2CC3CC(C2)CC1C3)C(=O)NCCC(=O)N[C@H](Cc1ccccc1)C(=O)O (stereo partly drawn) [Example 32, D-Phenylalanine, N-[N-[α-methyl-N-[(tricyclo-[3.3.1.1^3,7]dec-2-yloxy)carbonyl]-D-tryptophyl]-β-alanyl]-]",103 nM
4,C[C@](Cc1c[nH]c2ccccc12)(NC(=O)OC1C2CC3CC(C2)CC1C3)C(=S)NCCc1ccccc1 (stereo partly shown) [Example 9],808 nM
5,"CC(=O)OC[C@H](Cc1ccccc1)NC[C@@](C)(Cc1c[nH]c2ccccc12)NC(=O)OC1C2CC3CC(C2)CC1C3 (relative stereo) [Example 7, [R-(R*,S*)]-β-[[2-(1H-indol-3-ylmethyl)-2-[[tricyclo-[3.3.1.1^3,7]dec-2-yloxvcarbonyl]amino]propyl]amino]-benzenepropanol acetate]",374 nM
6,"C[C@](CNC(=O)c1ccccc1)(Cc1c[nH]c2ccccc12)NC(=O)OC1C2CC3CC(C2)CC1C3 (stereo partly drawn) [Example 20, Carbamic acid, [2-(benzoylamino)-1-(1H-indol-3-ylmethyl)-1-methylethyl]-, tricyclo[3.3.1.1^3,7]dec-2-yl ester, (R)-]",493 nM
7,"C[C@@](Cc1c[nH]c2ccccc12)(NC(=O)OC1C2CC3CC(C2)CC1C3)C(=O)NCCC(=O)N[C@@H](Cc1ccccc1)C(N)=O (stereo partly drawn) [Example 27, L-Phenylalaninamide α-methyl-N-[(tricyclo[3.3.1.1^3,7]-dec-2-yloxy)carbonyl]-L-tryptophy-β-alanyl-]",910 nM
8,"C[C@](CNC(=O)CCCc1ccccc1)(Cc1c[nH]c2ccccc12)NC(=O)OC1C2CC3CC(C2)CC1C3 (stereo partly drawn) [Example 19, Carbamic acid, [1-(1H-indol-3-ylmethyl)-1-methyl-2-[(1-oxo-4-phenylbutyl)amino]ethyl]-, tricyclo-[3.3.1.1^3,7]dec-2-yl ester (R)-]",353 nM
9,"C[C@](Cc1c[nH]c2ccccc12)(NC(=O)OC1C2CC3CC(C2)CC1C3)C(=O)NCCC(=O)N[C@H](CO)Cc1ccccc1 (stereo partly drawn) [Example 23, Carbamic acid, [2-[[3-[[1-(hydroxymethyl)-2-phenyl-ethyl]amino]-3-oxopropyl]amino]-1-(1H-indol-3-ylmethyl)-1-methyl-2-oxoethyl]-, tricyclo-[3.3.1.1^3,7]dec-2-vl ester. [R-(R*.S*)]-]",800 nM
10,"C[C@](CN[C@H](CO)Cc1ccccc1)(Cc1c[nH]c2ccccc12)NC(=O)OC1C2CC3CC(C2)CC1C3 (stereo partly drawn) [Example 6, Tricyclo[3.3.1.1^3,7]dec-2-yl[R-(R*,S*)]-1-[[1(hydroxy-methyl)-2-phenylethyl]amino]-3-(1H-indol-3-yl)-2-methylprop-2-ylcarbamate]",200 nM
11,C[C@](CNC(=O)CCc1ccccc1)(Cc1c[nH]c2ccccc12)NC(=O)OC1C2CC3CC(C2)CC1C3 (stereo partly shown) [Example 21],> 100 nM

# Other lines, results leading:
row,Ki,Compound
1,17 nM,CNC(=O)C1CCCCC1NC(=O)[C@@](C)(Cc1c[nH]c2ccccc12)NC(=O)OC1C2CC3CC(C2)CC1C3 (stereo partly shown) [Example 123]
2,53 nM,"C[C@](Cc1c[nH]c2ccccc12)(NC(=O)OC1C2CC3CC(C2)CC1C3)C(=O)NC1CC2CCC1C2 (stereo partly shown) [Example 118, Tricyclo[3.3.1.1^3,7]dec-2yl ester [2-(bicyclo[2.2.1]hept-2-ylamino)-1-(1H-indol-3-ylmethyl)-1-methyl-2-oxoethyl]carbamate]"
3,50 nM,C[C@](Cc1c[nH]c2ccccc12)(NC(=O)OC1C2CC3CC(C2)CC1C3)C(=O)NCC(=O)OCc1ccccc1 (stereo partly shown) [Example 36]
4,942 nM,"C[C@](CC(=O)N[C@H](C(=O)O)c1ccccc1)(Cc1c[nH]c2ccccc12)NC(=O)OC1C2CC3CC(C2)CC1C3 (stereo partly drawn) [Example 90, N-[D-3-(1H-indol-3-ylmethyl)-3-methyl-N-[(tricyclo [3.3.1.1^3,7]dec-2-yloxy)carbonyl]-β-alanyl]-L-2-phenylglycine]"
5,540 nM,"C[C@@](Cc1c[nH]c2ccccc12)(NC(=O)OC1C2CC3CC(C2)CC1C3)C(=O)NCCC(=O)N[C@H](Cc1ccccc1)C(=O)O (stereo partly drawn) [Example 35, Benzenepropanoic acid, α-[[3-[[3-[(1H-indol-3-yl)-2-methyl-1-oxo-2-[[(tricyclo[3.3.1.1^3,7]dec-2-yloxy)-carbonyl]amino]propyl]amino]-1-oxopropyllamino-, [S-(R*,S*)]-]"
6,93 nM,CC(CNC(=O)OC1C2CC3CC(C2)CC1C3)(Cc1c[nH]c2ccccc12)C(=O)N[C@H](COC(=O)CCC(=O)O)Cc1ccccc1 (stereo partly shown) [Example 57]
7,2.5 nM,"COC[C@H]1CCCN1NC(=O)[C@@](C)(Cc1c[nH]c2ccccc12)NC(=O)OC1C2CC3CC(C2)CC1C3 (stereo partly drawn) [Example 113, Tricyclo [3.3.1.1^3,7]dec-2-yl [R-(R*,R*)]-[-(1H-indol-3-ylmethyl)-2-[[2-(methoxymethyl)-1-pyrrolidinyl]amino]-1-methyl-2-oxoethyl]carbamate]"
8,110 nM,"C[C@](Cc1c[nH]c2ccccc12)(NC(=O)OC1C2CC3CC(C2)CC1C3)C(=O)N[C@H](C(=O)O)c1ccccc1 (stereo partly drawn) [Example 91, [R-(R*,S)]-α-[[3-(1H-indol-3-yl)-2-methyl-1-oxo-2-[[(tricyclo[3.3.1.1^3,7]dec-2-yloxy)carbonyl]amino]proipyl]amino]benzeneacetic acid, [R-(R*,S*)]-]"
